The values below are quoted from earlier work in patent publication US20070025945A1, “Stabilized pharmaceutical and cosmetic composition of catechins or derivatives thereof” (Anagen Therapeutics, Inc., priority 2005, published 2007).

The test system of data set [1] is 5-alpha-reductase isozyme I / isozyme II. To be noted: 5-alpha-reductase isozymes.
The subject of the next data set is sebum production. The following applies: topical application directly to the forehead.
The test system of data set [2] is teleocidin-induced tumor promotion. To be noted: topically applied to skin; mice previously initiated with DMBA.

As to `O=C(O[C@@H]1Cc2c(O)cc(O)cc2O[C@@H]1c1ccc(O)c(O)c1)c1cc(O)c(O)c(O)c1` [ECG, (−)-epicatechin-3-gallates], the “activity against isozyme I versus isozyme II” value in data set [1] was “more active against isozyme I than isozyme II”.

With `CCCCC/C=C\C/C=C\C/C=C\CCCCC(=O)O` [gamma-linolenic acid], in the data set on sebum production, the “sebum production from the human forehead” value is on record as “inhibited”.

Regarding `O=C(O[C@@H]1Cc2c(O)cc(O)cc2O[C@@H]1c1cc(O)c(O)c(O)c1)c1cc(O)c(O)c(O)c1` [EGCG, (−)-epigallocatechin-3-gallates], the “activity against isozyme I versus isozyme II” value in data set [1] was “more active against isozyme I than isozyme II”. Moreover, in the data set on sebum production, the “sebum production from the human forehead” value is “inhibited”. Besides, in data set [2], the teleocidin-induced tumor promotion result is given as “inhibits”.
